The source of these data is patent US10513511B2, “Aqueous suspension formulation comprising 4-(4-(4-(((3R,5R)-5-((1H-1,2,4-triazol-1-yl)methyl)-5-(2,4-difluoro-phenyl)tetrahydrofuran-3-yl)methoxy)-3-methylphenyl) or a pharmaceutically acceptable salt thereof” (PULMOCIDE LIMITED, priority 2015, dated 2019).

In brackets after ≈: the same amount, converted by molar mass.

Common to all, as to format: cell-based
The test system of data set [1] is Aspergillus fumigatus NCPF7100. The experiment in a line: Planktonic fungus growth: broth microdilution assay (NCPF7100). Particulars: Aspergillus fumigatus, NCPF7100, read-out: MIC75 Values against Aspergillus fumigatus isolate NCPF7100. (Broth dilution looks for growth in wells or tubes with falling amounts of substance.)
Data set [2] relates to Aspergillus fumigatus TR46 (TR46/Y121F/T289A). Put plainly: Planktonic fungus growth: broth microdilution assay (TR46). The conditions noted are these: Aspergillus fumigatus, read-out: MIC75 Values against Aspergillus fumigatus isolate TR46. The protocol: (§1) This assay was conducted using a modified method published by EUCAST (Rodriguez-Tudela, et al., 2008). Spores of Aspergillus fumigatus (NCPF2010, NCPF7010 [methionine 220 mutation], NCPF7099 [Glycine G54 mutation]) from Public Health England, Wiltshire; TR34/L98H mutants from St Louis Hospital, Paris, France; TR46/Y121F/T289A mutants from University of Delhi, Delhi, India) were cultured in Sabouraud dextrose agar for 3 days. A stock spore suspension was prepared from a Sabouraud dextrose agar culture by washing with PBS-tween (10 mL; phosphate buffered saline containing 0.05% Tween-20, 100 U/mL penicillin and 100 U/mL streptomycin). The spore count was assessed using a Neubauer haemocytometer and then adjusted to 10^6 spores/mL with PBS. A working suspension of spores (2×10^5 spores/mL) was prepared in filter sterilised, BSA MOPS RPMI-1640 (50 mL; RPMI-1640 containing 2 mM L-glutamine, 0.5% BSA, 2% glucose, 0.165 M MOPS, buffered to pH 7 with NaOH).
(§2) For the assay, BSA MOPS RPMI-1640 (50 μL/well) was added throughout the 384-well plate (Catalogue number 353962, BD Falcon, Oxford, UK) first. Test compounds (0.5 μL DMSO solution) were then added in quadruplicate using an Integra VIAFLO 96 (Integra, Zizers, Switzerland), and mixed well using a plate mixer. Subsequently 50 μL of the working spore suspension prepared above was added to all wells except non-spore control wells. For non-spore control wells, BSA MOPS-RPMI solution (50 μL/well) was added instead. The plate was covered with a plastic lid, and incubated (35° C. with ambient air) for 48 hr. The OD of each well at 530 nm was determined using a multi-scanner (Clariostar: BMG, Buckinghamshire, UK). The percentage inhibition for each well was calculated and the MIC50, MIC75 and MIC90 values were calculated from the concentration-response curve generated for each test compound.

Data set [3] relates to Aspergillus fumigatus (NCPF2010). The experiment in a line: Aspergillus fumigatus infection of BEAS2B bronchial epithelial cells (galactomannan). Particulars: NCPF2010, 24 h, read-out: Infection of BEAS2B cells MIC50. The method, then:
BEAS2B cells were seeded in 96-well plates (100 μL; 3×10^4 cells/well; Catalogue No 3596, Sigma Aldrich, Dorset, UK) in 10% FBS RPMI-1640 and were then incubated (37° C., 5% CO2) for one day before experimentation. Test compounds (0.5 μL DMSO solution) or vehicle (DMSO) were added to each well to give a final DMSO concentration of 0.5%. BEAS2B cells were incubated with test compounds for 1 hr (35° C., 5% CO2) before infection with Aspergillus fumigatus (20 uL; Public Health England) conidia suspension (0.5×10^5/mL in 10% FBS RPMI-1640). The plate was incubated for 24 hr (35° C., 5% CO2). Supernatant (50 uL) was collected and transferred to a PCR plate (Catalogue No L1402-9700, Starlab, Milton Keynes, UK), which was frozen (−20° C.) until use. After thawing, supernatant (5 μL) was diluted 1:20 by adding R7-PBS solution (95 μL; 1:4 R7 to PBS; Bio-Rad Laboratories, Redmond, Wash., USA). Galactomannan levels in these samples (50 μL) were measured using Platelia GM-EIA kits (Bio-Rad Laboratories, Redmond, Wash., USA). The percentage inhibition for each well was calculated and the IC50 value was calculated from the concentration-response curve generated for each test compound.

In data set [4] the test system is Aspergillus fumigatus L98H (TR34/L98H). Put plainly: Planktonic fungus growth: broth microdilution assay (L98H). The conditions noted are these: Aspergillus fumigatus, read-out: MIC75 Values against Aspergillus fumigatus isolate L98H. The method, then: as §1, §2
Data set [5] deals with Aspergillus fumigatus NCPF7099. Put plainly: Planktonic fungus growth: broth microdilution assay (NCPF7099). The conditions noted are these: Aspergillus fumigatus, NCPF7099, n = 2-3, read-out: MIC75 Values against Aspergillus fumigatus isolate NCPF7099. The method, then:
as §1, §2

In data set [6] the test system is Aspergillus fumigatus NCPF2010. The experiment in a line: Planktonic fungus growth: broth microdilution assay (NCPF2010). Particulars: Aspergillus fumigatus, NCPF2010, n = 2-3, read-out: MIC75 Values against Aspergillus fumigatus isolate NCPF2010. The protocol:
as §1, §2

Data set [7] deals with BEAS2B cells. The experiment in a line: Cell viability: resazurin assay. Particulars: at concentrations indicated in Table 4. The method, then: (§3) BEAS2B cells were seeded in 384-well plates (100 μL; 3000/well/; BD Falcon, Catalogue No 353962) in RPMI-LHC8 (RPMI-1640 and LHC8 media combined in equal proportions) one day before experimentation. For cell-free control wells, RPMI-LHC8 (100 μL) was added. Test compounds (0.5 μL of a DMSO solution) were added to give a final DMSO concentration of 0.5% using an Integra VIAFLO 96 (Integra, Zizers, Switzerland). BEAS2B cells were incubated with each test compound for 1 day (37° C./5% CO2 in RPMI-LHC8). After addition of resazurin stock solution (5 μL, 0.04%) the plates were incubated for a further 4 hr (37° C./5% CO2). The fluorescence of each well at 545 nm (excitation) and 590 nm (emission) was determined using a multi-scanner (Clariostar: BMG Labtech). The percentage loss of cell viability was calculated for each well relative to vehicle (0.5% DMSO) treatment. Where appropriate, a CC50 value was calculated from the concentration-response curve generated from the concentration-response curve for each test compound.

The nature of data set [8]: Cell viability: resazurin assay. The conditions noted are these: human, BEAS2B cells; 1 day incubation, resazurin; n = 3. The method, then:
as §3
Background: The colour change of resazurin is a common sign of viable cells or microbes.

For orientation: MIC50 means an inhibitory concentration at the 50% level, which refers to growth in some studies and to a panel of isolates in others. In general, CC50 refers to the concentration at which the toxic effect on the cells reaches its halfway point. A high value points to better tolerance by the cells. For the compound `Cc1cc(N2CCN(c3ccc(C(=O)N[C@H]4CCCC[C@H]4O)cc3)CC2)ccc1OC[C@@H]1CO[C@@](Cn2cncn2)(c2ccc(F)cc2F)C1` [Compound (Ic), 4-(4-(4-(((3R,5R)-5-((1H-1,2,4-triazol-1-yl)methyl)-5-(2,4-difluorophenyl)tetrahydrofuran-3-yl)methoxy)-3-methylphenyl)piperazin-1-yl)-N-((1S,2R)-2-hydroxycyclohexyl)benzamide], the MIC in data set [1] turned out to be 0.0109 µM (≈ 7.49 ng/mL); in data set [2] it was 0.164 µM (≈ 113 ng/mL); in data set [4], 0.0549 µM (≈ 37.7 ng/mL); in data set [5], 0.0115 µM (≈ 7.9 ng/mL); in data set [6], 0.00227 µM (≈ 1.56 ng/mL). Further, the MIC50 in data set [3] was found to be 0.00186 µM (≈ 1.28 ng/mL). For the same compound, the “effect on the viability of BEAS2B bronchial epithelial cells” value in data set [7] is listed as “no or little effect”. The CC50 at 1 day in data set [8] is above 14.6 µM.
